Results as given in US20220031840A1, “Method of Treatment” (HaemaLogix Pty Ltd, priority 2018, published 2022).

Assays:
[1] = test system: serum M protein; assay: Serum M protein after kappamab; type: in vivo, human
[2] = test system: serum κFLC; assay: Serum κFLC pharmacodynamics (FreeLite assay); type: in vivo, human
Source text: (§1) Serum FLC levels were quantified using the FreeLite™ assay (The Binding Site Group Ltd, Birmingham, UK). […] Twenty-four-hour urine collection for urine protein electrophoresis immunofixation, urine FLC measurement (FreeLite™ assay), and creatinine clearance were collected on the day of infusion and on Day 45.

[3] = test system: urine κFLC; assay: 24-hour urine κFLC (FreeLite assay); type: in vivo, human
Source text: as §1

[4] = test system: 48 human cytokines, chemokines, and growth factors; assay: Biomarker analysis, Bio-Plex 27-plex and 21-plex, mixed-effects model; type: in vivo; settings: 48 cytokines
Procedure: Patient serum samples for biomarker analysis were collected approximately 30 minutes before infusion of kappamab and then at 6, 48, 192, and 1,080 hours after infusion for all patients. Samples were analysed in triplicate and serum levels of 48 human cytokines, chemokines, and growth factors were measured using the Bio-Plex Pro™ Human Cytokine 27-plex and 21-plex assays according to the manufacturer's recommendations (Bio-Rad, Carlsbad, Calif., USA; Cat No M10-0KCAF0Y, mg0-005KMII). Results were verified by repeating the 21-plex assay in triplicate and the samples were randomized across the assay plate. Pre-infusion samples were used as the baseline (t=0) for the analysis.
Multivariate analysis of the biomarker data was performed using R version 3.1.0 (2014-04-10) software (http://www.R-project.org/). Linear mixed effects modelling was completed using 1me4 (Bates et al. 2015). […]
To find significance between kappamab dose, time, and cytokine expression levels, we fitted a linear mixed-effects model that modelled cytokine fluorescence expression levels with fixed-effects terms for baseline cytokine fluorescence expression, kappamab dose (with 4 levels: 0.3, 1.0, 3.0, and 10 mg/kg), time (treated as factor with 5 levels), and cytokine with 48 levels, plus their interactions, with a random effect associated with patient (12 levels) and plex (2 levels). […]

kappamab: humanized form of K121 anti-KMA antibody; VH SEQ ID NO: 1, VL SEQ ID NO: 2
Patients with minor dose-related decreases in serum M protein ([1]; 7/11 patients): 64%
Serum M protein response versus IMWG response criteria ([1]; in vivo): did not meet the IMWG response criteria
Serum κFLC higher than baseline ([2]; Patient 2, during the study): up to 136%
Serum κFLC higher than baseline ([2]; Patient 7, Day 1): 83%
Serum κFLC increase from baseline ([2]; Patient 7, Day 30): 178%
Serum κFLC increase from baseline ([2]; Patient 7, Day 45): 198%
Serum κFLC versus baseline ([2]; Patient 7, by Day 105 post infusion): returned to below baseline
Serum κFLC increase from baseline ([2]; Patient 13, 6 hours after IV infusion): 690%
Serum κFLC below baseline ([2]; Patient 13, Day 45, remained for 3 months): 55%
Patients with decreases in serum κFLC below baseline ([2]; after Day 15, 8/12 patients): 67%
Change in serum κFLC levels following IV infusion ([2]; all patients): increase
Serum κFLC versus baseline ([2]; by Day 45, majority of patients): generally similar to baseline values
Dose dependency between serum κFLC increase and kappamab concentration ([2]; in vivo): no clear dose dependency
Patients with a decrease in urine κFLC ([3]; Day 1, 8/12 patients): 67%
Patients with a decrease in urine κFLC ([3]; Day 45 post infusion, 7/12 patients): 58%
Urine κFLC ([3]; Patient 1, Day 1): 144 mg/24 hours
Urine κFLC percent change from baseline ([3]; Patient 1, Day 1): −31%
Urine κFLC ([3]; Patient 1, Day 45): 107 mg/24 hours
Urine κFLC percent change from baseline ([3]; Patient 1, Day 45): −49%
Urine κFLC ([3]; Patient 2, Day 1): 1902 mg/24 hours
Urine κFLC percent change from baseline ([3]; Patient 2, Day 1): −27%
Urine κFLC percent change from baseline ([3]; Patient 2, Day 45): −13%
Urine κFLC ([3]; Patient 2, Day 45, exceeds upper limit of quantitation): > 2272 mg/24 hours
Urine κFLC ([3]; Patient 3, Day 1): 1143 mg/24 hours
Urine κFLC percent change from baseline ([3]; Patient 3, Day 1): −15%
Urine κFLC ([3]; Patient 3, Day 45): 5964 mg/24 hours
Urine κFLC percent change from baseline ([3]; Patient 3, Day 45): +343%
Urine κFLC ([3]; Patient 4, Day 1): 24 mg/24 hours
Urine κFLC percent change from baseline ([3]; Patient 4, Day 1): +85%
Urine κFLC ([3]; Patient 4, Day 45): 18 mg/24 hours
Urine κFLC percent change from baseline ([3]; Patient 4, Day 45): +38%
Urine κFLC ([3]; Patient 5, Day 1): 31 mg/24 hours
Urine κFLC percent change from baseline ([3]; Patient 5, Day 1): −68%
Urine κFLC ([3]; Patient 5, Day 45): 103 mg/24 hours
Urine κFLC percent change from baseline ([3]; Patient 5, Day 45): +6%
Urine κFLC ([3]; Patient 6, Day 1): 38 mg/24 hours
Urine κFLC percent change from baseline ([3]; Patient 6, Day 1): −17%
Urine κFLC ([3]; Patient 6, Day 45): 45 mg/24 hours
Urine κFLC percent change from baseline ([3]; Patient 6, Day 45): −2%
Urine κFLC ([3]; Patient 7, Day 1): 390 mg/24 hours
Urine κFLC percent change from baseline ([3]; Patient 7, Day 1): +25%
Urine κFLC ([3]; Patient 7, Day 45): 286 mg/24 hours
Urine κFLC percent change from baseline ([3]; Patient 7, Day 45): −8%
Urine κFLC ([3]; Patient 8, Day 1): 34 mg/24 hours
Urine κFLC percent change from baseline ([3]; Patient 8, Day 1): +278%
Urine κFLC ([3]; Patient 8, Day 45): 25 mg/24 hours
Urine κFLC percent change from baseline ([3]; Patient 8, Day 45): +178%
Urine κFLC ([3]; Patient 9, Day 1): 49 mg/24 hours
Urine κFLC percent change from baseline ([3]; Patient 9, Day 1): −13%
Urine κFLC ([3]; Patient 9, Day 45): 39 mg/24 hours
Urine κFLC percent change from baseline ([3]; Patient 9, Day 45): −30%
Urine κFLC ([3]; Patient 10, Day 1): 13 mg/24 hours
Urine κFLC percent change from baseline ([3]; Patient 10, Day 1): −69%
Urine κFLC ([3]; Patient 10, Day 45): 40 mg/24 hours
Urine κFLC percent change from baseline ([3]; Patient 10, Day 45): −5%
Urine κFLC ([3]; Patient 12, Day 1): 297 mg/24 hours
Urine κFLC percent change from baseline ([3]; Patient 12, Day 1): −9%
Urine κFLC ([3]; Patient 12, Day 45): 363 mg/24 hours
Urine κFLC percent change from baseline ([3]; Patient 12, Day 45): +11%
Urine κFLC ([3]; Patient 13, Day 1): 166 mg/24 hours
Urine κFLC percent change from baseline ([3]; Patient 13, Day 1): +12%
Urine κFLC ([3]; Patient 13, Day 45): 29 mg/24 hours
Urine κFLC percent change from baseline ([3]; Patient 13, Day 45): −80%
Dose-related trend in urinary excretion of κFLC ([3]; within each dose cohort): no consistent dose-related trend
Increases in serum cytokine concentrations in response to treatment [4]: No increases
